Assay results from publication PMC7015663 (Journal of the American Chemical Society, 2019).

Molecular target: T1, RNase A (Bos taurus, UniProt P61823)
T1 sequence (P61823 27-150): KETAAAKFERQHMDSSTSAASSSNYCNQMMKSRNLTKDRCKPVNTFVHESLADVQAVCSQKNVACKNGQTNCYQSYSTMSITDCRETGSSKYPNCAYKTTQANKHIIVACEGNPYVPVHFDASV
Assay: Inhibition kinetics of RNase A using a fluorogenic substrate
Format: biochemical, bovine
Details: ± standard error of fitting one-site binding equation; this work
With O=c1ccn([C@@H]2O[C@H](COP(=O)(O)OP(=O)(O)OP(=O)(O)O)[C@@H](O)[C@H]2O)c(=O)[nH]1 [p3U] the Ki was 8.3 ± 0.3 µM. Molecule O=c1ccn([C@@H]2O[C@H](COP(=O)(O)OP(=O)(O)OP(=O)(O)OP(=O)(O)OP(=O)(O)O)[C@@H](O)[C@H]2O)c(=O)[nH]1 [p5U] has a Ki of 0.068 ± 0.007 µM. Nc1ncnc2c1ncn2[C@@H]1O[C@H](COP(=O)(O)OP(=O)(O)OP(=O)(O)OP(=O)(O)O)[C@@H](O)[C@H]1O [p4A, adenosine tetraphosphate] showed a Ki of 2.1 ± 0.2 µM. With Nc1ncnc2c1ncn2[C@@H]1O[C@H](COP(=O)(O)O)[C@@H](O)[C@H]1O [pA] the Ki was 170 ± 6 µM. Work on O=P1(O)OP(=O)(O)OP(=O)(O)OP(=O)(O)OP(=O)(O)OP(=O)(O)O1 [cP6i, hexametaphosphate] yielded a Ki of 6.2 ± 0.1 µM. Work on O=P1(O)OP(=O)(O)OP(=O)(O)O1 [cP3i, trimetaphosphate] yielded a Ki of 960 ± 80 µM. Molecule Nc1ncnc2c1ncn2[C@@H]1O[C@H](COP(=O)(O)OP(=O)(O)OP(=O)(O)OP(=O)(O)OP(=O)(O)O)[C@@H](O)[C@H]1O [p5A] has a Ki of 1.4 ± 0.06 µM. Molecule O=P1(O)OP(=O)(O)OP(=O)(O)OP(=O)(O)O1 [cP4i, tetrametaphosphate] has a Ki of 30 ± 0.8 µM. O=c1ccn([C@@H]2O[C@H](COP(=O)(O)OP(=O)(O)OP(=O)(O)OP(=O)(O)O)[C@@H](O)[C@H]2O)c(=O)[nH]1 [p4U, uridine tetraphosphate] gave a Ki of 1.8 ± 0.1 µM. With O=c1ccn(C2OC(COP(=O)(O)OP3(=O)OP(=O)(O)OP(=O)(O)OP(=O)(O)O3)C(O)C2O)c(=O)[nH]1 (stereo not drawn) [cp4pU] the Ki was 0.98 ± 0.07 µM. For O=P(O)(O)OP(=O)(O)OP(=O)(O)O [P3i], the Ki was 23 ± 1 µM. In the case of Nc1ncnc2c1ncn2C1OC(COP(=O)(O)OP2(=O)OP(=O)(O)OP(=O)(O)OP(=O)(O)O2)C(O)C1O (stereo not drawn) [cp4pA], the Ki is reported as 0.48 ± 0.03 µM.

Molecular target: T1, RNase A
Assay: Salt dependence of inhibition/binding of RNase A
Format: biochemical, bovine
Details: salt dependence of inhibition (Figure S30)
For O=c1ccn([C@@H]2O[C@H](COP(=O)(O)OP(=O)(O)OP(=O)(O)OP(=O)(O)OP(=O)(O)O)[C@@H](O)[C@H]2O)c(=O)[nH]1 [p5U], the “δlogKd/δlog[Na+]” value was 3.2.

Molecular target: T1, RNase A
Assay: not given
Details: ref [7]; cited from earlier work
In the case of Cc1cn([C@H]2C[C@H](OP(=O)(O)OP(=O)(O)OC[C@H]3O[C@@H](n4cnc5c(N)ncnc54)C[C@@H]3O)[C@@H](CO)O2)c(=O)[nH]c1=O [TppdA], the Ki is given as 4 µM. For Nc1ncnc2c1ncn2[C@@H]1O[C@H](COP(=O)(O)OP(=O)(O)O[C@H]2C[C@H](n3ccc(=O)[nH]c3=O)O[C@@H]2CO)[C@@H](OP(=O)(O)O)[C@H]1O [dUppAp], the Ki is given as 0.12 µM. In the case of Nc1ncnc2c1ncn2C1OC(COP(=O)(O)OP(=O)(O)OC2CC(n3ccc(=O)[nH]c3=O)OC2COP(=O)(O)O)C(OP(=O)(O)O)C1O (stereo not drawn) [pdUppAp], the Ki is given as 0.027 µM. For Nc1ncnc2c1ncn2[C@@H]1O[C@H](COP(=O)(O)OP(=O)(O)O)[C@@H](OP(=O)(O)O)[C@H]1O [ppAp], the Ki is listed as 0.24 µM. For Cc1cn(C2CC(OP(=O)(O)OP(=O)(O)OCC3OC(n4cnc5c(N)ncnc54)C(O)C3OP(=O)(O)O)C(COP(=O)(O)O)O2)c(=O)[nH]c1=O (stereo not drawn) [pdTppAp], the Ki is given as 0.041 µM.

Same assay, conditions: ref [10]; cited from earlier work
In the case of Nc1ncnc2c1ncn2[C@@H]1O[C@H](COP(=O)(O)OP(=O)(O)OP(=O)(O)O)[C@@H](O)[C@H]1O [p3A], the Ki is given as 0.86 µM. For Nc1ncnc2c1ncn2[C@@H]1O[C@H](COP(=O)(O)OP(=O)(O)OP(=O)(O)OP(=O)(O)OC[C@H]2O[C@@H](n3cnc4c(N)ncnc43)[C@H](O)[C@@H]2O)[C@@H](O)[C@H]1O [Ap4A], the Ki is given as 2.6 µM. In the case of Nc1ncnc2c1ncn2[C@@H]1O[C@H](COP(=O)(O)OP(=O)(O)OP(=O)(O)OP(=O)(O)OP(=O)(O)OC[C@H]2O[C@@H](n3cnc4c(N)ncnc43)[C@H](O)[C@@H]2O)[C@@H](O)[C@H]1O [Ap5A], the Ki is given as 0.23 µM. For Nc1ncnc2c1ncn2[C@@H]1O[C@H](COP(=O)(O)OP(=O)(O)OP(=O)(O)OC[C@H]2O[C@@H](n3cnc4c(N)ncnc43)[C@H](O)[C@@H]2O)[C@@H](O)[C@H]1O [Ap3A], the Ki is given as 29 µM.

Same assay, conditions: ref [40]; cited from earlier work
In the case of O=P(O)(O)OP(=O)(O)O [P2i, pyrophosphate], the Ki is listed as 170 µM. In the case of O=P(O)(O)O [Pi, orthophosphate], the Ki is listed as 4600 µM.

Same assay, conditions: ref [41]; cited from earlier work
In the case of Nc1ncnc2c1ncn2[C@@H]1O[C@H](COP(=O)(O)OP(=O)(O)O)[C@@H](O)[C@H]1O [p2A], the Ki is listed as 1.2 µM.

Same assay, conditions: ref [42]; cited from earlier work
In the case of O=c1ccn([C@@H]2O[C@H](COP(=O)(O)O)[C@@H](O)[C@H]2O)c(=O)[nH]1 [pU], the Ki is given as 4000 µM.

Same assay, conditions: ref [43]; cited from earlier work
In the case of O=c1ccn([C@@H]2O[C@H](COP(=O)(O)OP(=O)(O)O)[C@@H](O)[C@H]2O)c(=O)[nH]1 [p2U], the Ki is given as 650 µM.
